This note sets out measurements from PubChem BioAssay (NCI).

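Interpolation was linear, between the two tested concentrations surrounding the appropriate level; five concentrations were tested over 48 hours in 96-well plates. TGI denotes the concentration required for complete inhibition of growth.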

Test systems include HCC-2998 colon; RPMI-8226 leukemia; OVCAR-8 ovarian; CAKI-1 renal; PC-3 prostate; MDA-N; A549 NSCLC; SR leukemia; A498 renal; MCF7 breast.
What all share (assay): inhibition of tumour cell growth, NCI panel, 48 h

With `CN1C/C(=C\c2ccc(Cl)cc2)C(=O)/C(=C/c2ccc(Cl)cc2)C1`, the TGI is more than 100 µM in the experiment on HCC-2998 colon; 0.895 µM in the experiment with RPMI-8226 leukemia; 0.605 µM with OVCAR-8 ovarian; more than 27.6 µM with CAKI-1 renal; more than 100 µM in the experiment on PC-3 prostate; 8.86 µM in the experiment on MDA-N. Also, the results for the TGI with A549 NSCLC, in the experiment with SR leukemia and in the experiment on A498 renal were more than 100 µM, 5.47 µM and 3.2 µM, respectively.
`CC1(C)[C@@H](Cn2cnc3c(=O)[nH]c(N)nc32)CC[C@@]1(C)CO`: the TGI in the experiment on HCC-2998 colon, in the experiment on RPMI-8226 leukemia, with MCF7 breast, with CAKI-1 renal, in the experiment on PC-3 prostate and in the experiment on MDA-N was more than 100 µM in each case. Further, the TGI in the experiment on A549 NSCLC and with A498 renal was more than 100 µM in each case.
In the case of `CCCn1c(=O)c2ccccc2[n+]2c(-c3ccc([N+](=O)[O-])cc3)csc12`, the TGI with HCC-2998 colon is more than 100 µM; with RPMI-8226 leukemia, 55.7 µM; with OVCAR-8 ovarian, 83.4 µM; with MCF7 breast, more than 100 µM; with CAKI-1 renal, more than 100 µM; in the experiment on PC-3 prostate it was more than 100 µM. For the same compound, the values for the TGI with MDA-N, in the experiment on A549 NSCLC and with A498 renal were more than 100 µM, more than 100 µM and 74.4 µM, respectively.
Turning to `CC1(C)CN(c2ccccc2)C(=O)C1OC(=O)[C@@]1(C)C[C@@H]2C=C[C@H]1C2` (some centres not stated), the TGI is 30 µM in the experiment on RPMI-8226 leukemia; more than 100 µM in the experiment with OVCAR-8 ovarian; 58 µM in the experiment on MCF7 breast; 61.5 µM in the experiment on CAKI-1 renal; 83.2 µM in the experiment with PC-3 prostate; 41.6 µM with MDA-N. Besides, the TGI in the experiment on A549 NSCLC is 83.7 µM; in the experiment on A498 renal, 61.3 µM.
Take `O=C(NNc1cn[nH]c(=O)c1Cl)/C(=C/c1ccc2c(c1)OCO2)NC(=O)c1ccccc1`: the TGI is more than 100 µM in the experiment with HCC-2998 colon; more than 100 µM in the experiment on OVCAR-8 ovarian; more than 100 µM with MCF7 breast; 56.2 µM in the experiment on CAKI-1 renal; more than 100 µM in the experiment with PC-3 prostate; more than 100 µM in the experiment on MDA-N. The compound also displayed a TGI with A549 NSCLC of more than 100 µM.
For `O=C(Nc1c(Cl)cc([N+](=O)[O-])cc1Cl)C(=O)C1C(=O)NC(=S)NC1=O`, the TGI in the experiment with HCC-2998 colon, with RPMI-8226 leukemia, in the experiment on OVCAR-8 ovarian, in the experiment with MCF7 breast, in the experiment with CAKI-1 renal and in the experiment on PC-3 prostate was more than 100 µM throughout. Also, the TGI in the experiment on MDA-N, with A549 NSCLC and in the experiment with A498 renal was more than 100 µM each time.
Consider `CN(C)CCOC(=O)c1ccc(N)cc1`, for which the TGI in the experiment on HCC-2998 colon is 31.4 µM; in the experiment on RPMI-8226 leukemia it was 75.2 µM; in the experiment with OVCAR-8 ovarian, more than 100 µM; in the experiment on MCF7 breast, more than 100 µM; in the experiment on CAKI-1 renal, more than 100 µM; in the experiment with PC-3 prostate it was 35.1 µM. The TGI in the experiment on MDA-N, in the experiment on A549 NSCLC and in the experiment with A498 renal was more than 100 µM in each case.
Regarding `COc1ccccc1NC(=S)N/N=C(/C)c1ccccn1`, the TGI in the experiment with HCC-2998 colon, in the experiment with RPMI-8226 leukemia, in the experiment on OVCAR-8 ovarian, with MCF7 breast, with CAKI-1 renal and with PC-3 prostate was more than 100 µM in each case. For the same compound, the TGI was more than 100 µM in the experiment with MDA-N and more than 55.3 µM in the experiment with A549 NSCLC.
As for `C=CCN(c1cc(OCc2ccccc2)c(NC(C)=O)cc1[N+](=O)[O-])S(C)(=O)=O`, the TGI in the experiment with HCC-2998 colon was more than 100 µM; in the experiment on RPMI-8226 leukemia it was more than 100 µM; with OVCAR-8 ovarian, 50.3 µM; with MCF7 breast, more than 100 µM; in the experiment with CAKI-1 renal, more than 100 µM; in the experiment with PC-3 prostate, more than 100 µM. For the same compound, the TGI in the experiment with MDA-N is more than 100 µM; in the experiment with A549 NSCLC, more than 100 µM; with A498 renal it was 41.6 µM.
For the compound `COc1ccc(/C=C2\CC3C4CC=C5C[C@@H](O)CC[C@]5(C)C4CC[C@]3(C)\C2=N\O)cc1OC` (some centres not stated), the TGI with HCC-2998 colon, in the experiment on RPMI-8226 leukemia, in the experiment on OVCAR-8 ovarian, in the experiment on MCF7 breast, in the experiment with CAKI-1 renal and in the experiment on PC-3 prostate was more than 100 µM throughout. In addition, the TGI in the experiment on MDA-N is more than 100 µM; in the experiment on A549 NSCLC, more than 100 µM; with A498 renal, 86.2 µM.
On to `COc1ccc2c(c1)nc1n2C(N)=Nc2ccccc2S1`, for which the TGI in the experiment with HCC-2998 colon was more than 100 µM; with RPMI-8226 leukemia it was more than 82.2 µM; in the experiment with OVCAR-8 ovarian it was more than 82.1 µM; in the experiment on MCF7 breast, more than 100 µM; in the experiment with CAKI-1 renal, more than 100 µM; with PC-3 prostate it was more than 100 µM. The TGI in the experiment with MDA-N was more than 100 µM; with A549 NSCLC, more than 100 µM; in the experiment on A498 renal, more than 88.4 µM.
For the compound `CC(NC(=O)OCc1ccccc1)NC(=O)C(CC(=O)OC(C)(C)C)NC(=O)OC(C)(C)C` (configuration not stated), the TGI with RPMI-8226 leukemia, in the experiment on OVCAR-8 ovarian, in the experiment with MCF7 breast, with CAKI-1 renal, in the experiment on PC-3 prostate and with MDA-N was more than 100 µM throughout. The TGI in the experiment on A549 NSCLC and in the experiment on A498 renal was more than 100 µM throughout.
